For 2 compounds, IC50 results are on record in patent US20070004660A1, “Synergistic Modulation of Flt3 Kinase Using Alkylquinolines and Alkylquinazolines” (priority 2005, published 2007).

In one assay the test system is MV4-11 cells. Nature of the assay: Inhibition of MV4-11 cell proliferation (CellTiterGlo, 72 h). In kind it is cell-based. Particulars: Homo sapiens; 72 h growth inhibition; uncertainty ±20%. In general terms: In ATP-based viability assays light output follows the ATP content of the culture.
Assay [1] deals with T1, isolated kinase domain of the human FLT3 receptor (a.a. 571-993) (Homo sapiens, UniProt P36888).
T1 construct: human FLT3 receptor (a.a. 571-993)
T1 sequence (P36888 571-993): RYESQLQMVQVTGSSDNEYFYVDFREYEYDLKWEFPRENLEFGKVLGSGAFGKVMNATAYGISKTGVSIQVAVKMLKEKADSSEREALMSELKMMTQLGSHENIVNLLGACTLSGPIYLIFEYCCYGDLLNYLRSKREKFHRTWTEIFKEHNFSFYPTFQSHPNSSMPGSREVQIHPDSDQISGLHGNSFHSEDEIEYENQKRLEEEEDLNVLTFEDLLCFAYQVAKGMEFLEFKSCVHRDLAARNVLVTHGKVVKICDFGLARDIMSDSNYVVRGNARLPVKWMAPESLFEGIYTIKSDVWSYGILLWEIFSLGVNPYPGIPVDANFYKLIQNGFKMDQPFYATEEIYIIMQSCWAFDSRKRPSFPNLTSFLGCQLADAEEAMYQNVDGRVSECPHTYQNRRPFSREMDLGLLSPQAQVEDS
The assay is described as follows: FLT3 fluorescence polarization kinase assay. In kind it is biochemical. Particulars: 150 uM ATP; uncertainty ±10%. (In general: Fluorescence polarisation rises when a labelled molecule tumbles more slowly, as on binding a larger partner.)

For the compound `O=C(Nc1ccc(N2CCCC2)cc1)N1CCC(c2ncnc3cc(N4CCN(CCO)CC4)ccc23)CC1` [Compound 185, 4-{7-[4-(2-Hydroxy-ethyl)-piperazin-1-yl]-quinazolin-4-yl}-piperidine-1-carboxylic acid (4-pyrrolidin-1-yl-phenyl)-amide], the IC50 (usually the point on the concentration scale where inhibition reaches its midpoint) in the assay on MV4-11 cells stood at 0.006 µM; in assay [1] it was 0.055 µM.
For `CN1CCC[C@H]1COc1ccc2c(C3CCN(C(=O)Nc4ccc(N5CCCC5)cc4)CC3)ncnc2c1` [Example 151, (S)-4-[7-(1-Methyl-pyrrolidin-2-ylmethoxy)-quinazolin-4-yl]-piperidine-1-carboxylic acid (4-pyrrolidin-1-yl-phenyl)-amide] the same measures were 0.193 µM and 0.062 µM.
